The values below come from US20040029908A1, “Tricyclo compounds, a process for their production and a pharmaceutical composition containing the same” (FUJISAWA PHARMACEUTICAL CO., LTD., priority 1984, published 2004).

By IC50 is commonly meant the concentration needed to halve the response being measured. Low readings indicate greater potency, high ones weaker potency. One may read the MIC as the lowest concentration that inhibits growth of the organism. Low readings indicate greater potency, high ones weaker potency.

Molecules are shown by their SMILES. Values after ≈ are worked out from the molar mass of the structure shown.

For data set [1], the system named is mouse MLR (C57BL/6 responder cells, mitomycin C treated BALB/C stimulator cells). Briefly: Suppression of in vitro Mixed Lymphocyte Reaction (MLR), 3H-thymidine uptake. The format is cell-based. Conditions: for IC50: Lymphocyte, mouse MLR, 68 hours, 3H-thymidine. How it is done:
The MLR test was performed in microtiter plates, with each well containing 5 ×10^5 C57BL/6 responder cells (H-2^b ), 5 ×10^5 mitomycin C treated (25μg/ml mitomycin C at 37° C. for 30 minutes and washed three times with RPMI 1640 medium) BALB/C stimulator cells (H-2^d) in 0.2 ml RPMI 1640 medium supplemented with 10% fetal calf serum, 2mM sodium hydrogen carbonate, penicillin (50 unit/ml) and streptomycin (50 μg/ml) . The cells were incubated at 37 ° C. in humidified atmosphere of 5% carbon dioxide and 95% of air for 68 hours and pulsed with ^3H-thymidine (0.5 μCi) 4 hours before the cells were collected. The object compound of this invention was dissolved in ethanol and further diluted in RPMI 1640 medium and added to the cultures to give final concentrations of 0.1 μg/ml or less.

Data set [2] relates to Aspergillus fumigatus IFO 5840. The data set is described as follows: Antimicrobial activity, serial agar dilution method in Sabouraud agar. The data set is classed as cell-based. Conditions: IFO5840, 30° C., 24 hours. How it is done:
(§1) Antimicrobial activities of the tricyclo compounds (I) against various fungi were determined by a serial agar dilution method in a Sabouraud agar. Minimum inhibitory concentrations (MIC) were expressed in terms of μg/ml after incubation at 30° C. for 24 hours.
A general note: In agar dilution the substance is mixed into plates at graded concentrations.

The test system of data set [3] is ddY mice. Briefly: Acute toxicities in ddY mice by intraperitoneal injection. The format is in vivo.
Data set [4] is described as follows: Solubility (physical and chemical properties). The format is physicochemical.
Data set [5] concerns Fusarium oxysporum. Briefly: Antimicrobial activity, serial agar dilution method in Sabouraud agar. The data set is classed as cell-based. Conditions: 30° C., 24 hours. The procedure:
as §1

[6] abbreviates: ddY mice, intraperitoneal injection.
[7] abbreviates: hexane (n-hexane), petroleum ether.
Setting [8] is: methanol, ethanol, acetone, ethyl acetate, chloroform, diethyl ether and benzene.

For the molecule `CO[C@H]1C[C@@H](C)C/C(C)=C/[C@@H](C)C(=O)C[C@H](O)[C@@H](C)[C@@H](/C(C)=C/[C@@H]2CC[C@@H](O)[C@H](OC)C2)OC(=O)[C@@H]2CCCCN2C(=O)C(=O)[C@]2(O)O[C@H]1[C@@H](OC)C[C@H]2C` [FR-900523], the “Radioactivities (mean C.P.M. ± S.E.)” value in data set [1] (0.25 ng/ml) came to 17721 ± 1083 C.P.M; in data set [1] (0.500 ng/ml), 11624 ± 395 C.P.M; in data set [1] (1 ng/ml), 5600 ± 399 C.P.M; in data set [1] (10 ng/ml), 156 ± 37 C.P.M; in data set [1] (100 ng/ml), 25 ± 12 C.P.M. Also, the “Suppression (%)” value in data set [1] (0.25 ng/ml) came to 23.3%; in data set [1] (0.500 ng/ml), 49.7%; in data set [1] (1 ng/ml), 75.8%; in data set [1] (10 ng/ml) it was 99.3%; in data set [1] (100 ng/ml), 99.9%. This molecule also gave a concentration for half-maximal inhibition (IC50) in data set [1] of 0.0005 µg/mL (≈ 0.000643 µM). Moreover, the MIC in data set [2] amounted to 0.3 µg/mL (≈ 0.386 µM). In addition, the “the dead at dose of 100 mg/kg” value in data set [3] (setting [6]) is on record as “could not be observed”. The Solubility entry is on record as “Sparingly Soluble” in data set [4] (setting [7]), “Soluble” in data set [4] (setting [8]) and “Insoluble” in data set [4] (water).
For `C=CC[C@@H]1/C=C(\C)C[C@H](C)C[C@H](OC)[C@H]2O[C@@](O)(C(=O)C(=O)N3CCC[C@H]3C(=O)O[C@H](/C(C)=C/[C@@H]3CC[C@@H](O)[C@H](OC)C3)[C@H](C)[C@@H](O)CC1=O)[C@H](C)C[C@@H]2OC` [FR-900525], the “Radioactivities (mean C.P.M. ± S.E.)” value turned out to be 10103 ± 421 C.P.M in data set [1] (1.2 ng/ml); 3564 ± 512 C.P.M in data set [1] (2.5 ng/ml); 828 ± 369 C.P.M in data set [1] (5 ng/ml); 372 ± 32 C.P.M in data set [1] (10 ng/ml); 469 ± 56 C.P.M in data set [1] (100 ng/ml). The “Suppression (%)” value in data set [1] (1.2 ng/ml) was 35.8%; in data set [1] (2.5 ng/ml), 77.4%; in data set [1] (5 ng/ml), 94.7%; in data set [1] (10 ng/ml) it was 97.6%; in data set [1] (100 ng/ml), 97.0%. Also, the IC50 in data set [1] was 0.00155 µg/mL (≈ 0.00196 µM). The MIC in data set [2] was 0.5 µg/mL (≈ 0.633 µM); in data set [5] it was 1 µg/mL (≈ 1.27 µM). Moreover, in data set [3] (setting [6]), the “the dead at dose of 100 mg/kg” value is “could not be observed”. Besides, the Solubility result is on record as “Sparingly Soluble” in data set [4] (setting [7]), “Soluble” in data set [4] (setting [8]) and “Insoluble” in data set [4] (water).
As to `CCC1/C=C(\C)CC(C)CC(OC)C2OC(O)(C(=O)C(=O)N3CCCCC3C(=O)OC(/C(C)=C/C3CCC(O)C(OC)C3)C(C)C(O)CC1=O)C(C)CC2OC` (stereo not shown) [FR-900520, 17-Ethyl-1,14-dihydroxy-12-[2-(4-hydroxy-3-methoxycyclohexyl)-1-methylvinyl)-23,25-dimethoxy-13,19,21,27-tetramethyl-11,28-dioxa-4-azatricyclo-[^22.3.1.0^4,^9) octacos-18-ene-2,3,10,16-tetraone], the “Radioactivities (mean C.P.M. ± S.E.)” value was found to be 14987 ± 1786 C.P.M in data set [1] (0.25 ng/ml); 9434 ± 1546 C.P.M in data set [1] (0.500 ng/ml); 2744 ± 527 C.P.M in data set [1] (1 ng/ml); 515 ± 55 C.P.M in data set [1] (10 ng/ml); 175 ± 16 C.P.M in data set [1] (100 ng/ml). The “Suppression (%)” value in data set [1] (0.25 ng/ml) was 35.1%; in data set [1] (0.500 ng/ml) it was 59.2%; in data set [1] (1 ng/ml), 88.1%; in data set [1] (10 ng/ml) it was 97.8%; in data set [1] (100 ng/ml) it was 99.2%. The molecule further displayed a concentration for half-maximal inhibition (IC50) in data set [1] of 0.00038 µg/mL (≈ 0.00048 µM). The MIC in data set [2] worked out at 0.1 µg/mL (≈ 0.126 µM). In addition, the “the dead at dose of 100 mg/kg” value in data set [3] (mouse, in vivo, ip) is given as “could not be observed”. Besides, the figures for the Solubility result in data set [4] (setting [7]), in data set [4] (setting [8]) and in data set [4] (water) were “Sparingly Soluble”, “Soluble” and “Insoluble”, respectively.
